This is an account of results in patent publication US9073833B1, “Oxime-based compound, pharmaceutical composition containing the same and method for preparing the same” (Chang Gung University, priority 2014, dated 2015).

Assay [1] concerns acute lung injury induced by LPS. In words: LPS-induced acute lung injury: tissue pathological examination of lung. The class given is in vivo, mouse (C57BL/6). To be noted: 100 mg/kg intraperitoneal; 6 hours after LPS; H&E, 400×. The method, then:
The left lung tissue of the mice from each group was rinsed with PBS and was fixed using a fixating solution (10% paraformaldehyde prepared in PBS) for 24 hours, followed by subjecting to ethanol dehydration treatment. The dehydrated tissue was then embedded in paraffin and sliced, thereby obtaining a sample with 4 to 6 μm thickness. The paraffin was then removed from the sample. The tissue was then stained with hematoxylin and eosin, was observed using an optical microscope (IX81, Olympus) at 400× magnification, and an image thereof was captured using a digital camera (DP72, Olympus).

Assay [2] deals with foot edema induced by human neutrophil elastase. In words: Foot edema induced by human neutrophil elastase in mice.
Assay [3] deals with acute lung injury induced by LPS. In words: LPS-induced acute lung injury: myeloperoxidase (MPO) activity in lung tissue. Particulars: 100 mg/kg intraperitoneal, 60 minutes before LPS; 6 hours after LPS.
The target of assay [4] is human neutrophil elastase (Homo sapiens (Human), UniProt P08246). As to the kind of experiment: Inhibition of human neutrophil elastase activity (MeO-Suc-Ala-Ala-Pro-Val-p-nitroanilide, OD405). Particulars: mean ± SEM (n = 3), 30° C., 30 minutes. The class given is biochemical.
human neutrophil elastase, sequence (P08246 30-267): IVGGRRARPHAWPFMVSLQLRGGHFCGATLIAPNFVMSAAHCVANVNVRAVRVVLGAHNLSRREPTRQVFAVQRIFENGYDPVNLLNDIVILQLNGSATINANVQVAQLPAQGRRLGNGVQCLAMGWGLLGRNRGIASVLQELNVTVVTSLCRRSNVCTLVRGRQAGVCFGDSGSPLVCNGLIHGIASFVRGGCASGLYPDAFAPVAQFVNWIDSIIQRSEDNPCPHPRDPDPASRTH

For `C/C(=N\O)c1ccccc1NS(=O)(=O)c1ccc(OC(=O)C(C)(C)C)cc1` [Compound 1, (E)-4-(N-(2-(1(hydroxyimino)ethyl)phenyl)sulfamoyl)phenyl pivalate], the “lung histology (alveolar edema, interstitial lung edema, leukocyte infiltration)” value in assay [1] is “minor alveolar edema, interstitial lung edema, and leukocyte infiltration”. Moreover, in assay [2] (50 mg/kg and 100 mg/kg intraperitoneal, 60 minutes before elastase, 10th-240th minute), the “edema degree (change in foot thickness) vs pathological control group” value is “relatively lower edema degree”. The “reduction of edema degree compared with Sivelestat” value in assay [2] (100 mg/kg intraperitoneal, Sivelestat 100 mg/kg) was “superior effect in reduction of edema degree to Sivelestat”. In assay [3], the “MPO activity in lung tissue vs pathological control group” value is listed as “significantly reduced MPO activity”.

The term IC50 denotes the point on the concentration scale where inhibition reaches its midpoint. For `C/C(=N\OCCCO)c1ccccc1NS(=O)(=O)c1ccc(OC(=O)C(C)(C)C)cc1` [Compound 7, (E)-4-(N-(2-(1-(3-hydroxypropoxyimino)ethyl)phenyl)sulfamoyl)phenyl pivalate], in assay [4], the 50% inhibitory concentration (IC50) was found to be 159 ± 15.5 µM.
